Values quoted from earlier work, collected in patent US20250263624A1, “Environmentally friendly metal cutting oil with high load-bearing and high anti-wear properties” (Shenyang Peite Technology Co., Ltd, priority 2025, published 2025).

Water solubility: Insoluble
SMILES: CC(C)CCCCCOC(=O)CCCCCCCCC(=O)OCCCCCC(C)C [diisooctyl sebacate]
